Experimental findings from ChEMBL document CHEMBL5634097, “A review: FDA-approved fluorine-containing small molecules from 2015 to 2022” (Eur J Med Chem, 2023) are described below.

A value given as a limit tells only on which side of the number the result lay.

Series [1] is described as follows: Inhibition of CGRP (unknown origin). Set-up: species or system Homo sapiens.
Series [2] in a line: Half life in dog. Format: ADME, Canis lupus familiaris. The following applies: in vivo.
Series [3] can be described thus: Half life in rat. It is filed as ADME. To be noted: in vivo.
Series [4] deals with Replicase polyprotein 1ab (Severe acute respiratory syndrome coronavirus 2) (UniProt P0DTD1). The series can be described thus: Binding affinity to SARS-Cov-2 PLpro.
The target of series [5] is Spike glycoprotein (Severe acute respiratory syndrome coronavirus 2) (UniProt P0DTC2). The series can be described thus: Binding affinity to SARS-Cov-2 Spike protein.
The target in series [6] is Replicase polyprotein 1ab (Severe acute respiratory syndrome coronavirus 2) (UniProt P0DTD1). Kind of series: Binding affinity to SARS-Cov-2 Main protease.
Series [7] addresses Dual specificity mitogen-activated protein kinase kinase; MEK1/2 (Homo sapiens, UniProt P36507+Q02750). Kind of series: Inhibition of MEK1/2 (unknown origin). Format: protein assay.

A word on the IC50: it is the concentration that gives 50% inhibition. Lower therefore signals inhibition by little substance. As a reminder, the half-life is the time needed for the level to fall by half in the phase considered. Read a low half-life as fast loss. Regarding `CN1CCN2c3c(cccc31)[C@@H]1CN(CCCC(=O)c3ccc(F)cc3)CC[C@@H]12` [LUMATEPERONE], the IC50 in series [1] turned out to be 0.14 nM. For the same compound, the half-life in series [2] and in series [3] was at most 30 h each time.

For the compound `CNC(=O)c1ccc(-c2cnc3ncc(Cc4ccc5ncccc5c4)n3n2)cc1F`, the K was -7.7 kcal/mol in series [4], -7.7 kcal/mol in series [5] and -9.3 kcal/mol in series [6].

`Cn1cnc2c(F)c(Nc3ccc(Br)cc3F)c(C(=O)NOCCO)cc21` [BINIMETINIB] had an IC50 in series [7] of 12 nM.
